Test results taken from patent publication US9278940B2, “Cyclic amines as bromodomain inhibitors” (Zenith Epigenetics Corp., priority 2012, dated 2016).
Counter-ions that a name gives are not always drawn.

Legend:
[1] = tested on: c-myc; assay: Inhibition of c-myc expression (mRNA, real-time PCR) in MV4-11 cells; assay type: cell-based; design: key: Active: Compounds with an IC50 value less than 30 μM were deemed to be active.; Not Active: Compounds with an IC50 value less than 30 μM were deemed to be active; details: Human AML MV4-11 cells, 3 hours
How it was run: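 MV4-11 cells (2.5×10^4) exposed to compound or 0.1% DMSO for 3 h at 37° C, then lysed for mRNA isolation. c-myc and cyclophilin cDNAs co-amplified by duplex RT real-time PCR. IC50 from dose-response curve.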

[2] = tested on: IL-6 and IL-17 cytokines; assay: In vivo efficacy in mouse endotoxemia model; details: C57/Bl6 mice, oral 75 mg/kg, inhibition of IL-6 and IL-17 post 4 hour LPS challenge 0.5 mg/kg intraperitoneally
Method: Sub lethal doses of Endotoxin (E. Coli bacterial lipopolysaccharide) were administered to animals to produce a generalized inflammatory response which was monitored by increases in secreted cytokines. Compounds were administered to C57/Bl6 mice orally at 75 mg/kg dose to evaluate inhibition in IL-6 and IL-17 cytokines post 4 hour challenge with Lipopolysaccharide (LPS) at 0.5 mg/kg dose intraperitoneally.

[3] = tested on: hIL-6 mRNA; assay: Inhibition of hIL-6 mRNA transcription in LPS-stimulated U937 macrophages; assay type: cell-based, human; design: key: Active: Compounds with an IC50 value less than 30 μM are deemed to be active.; Not Active: Compounds with an IC50 value less than 30 μM are deemed to be active; details: U937 cells differentiated with PMA, 1 h pretreatment, LPS 3 h
How it was run: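 U937 cells differentiated to macrophages with 60 ng/mL PMA for 3 days, pretreated 1 h with compound, then stimulated with 1 ug/mL E. coli LPS for 3 h at 37° C. IL-6 mRNA measured by one-step qRT-PCR, Ct normalized to internal control, expressed as fold induction relative to control.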

[4] = molecular target: T1, Brd4 bromodomain 1 (Homo sapiens, UniProt O60885); assay: Inhibition of tetra-acetylated histone H4 binding to BET bromodomain (TR-FRET); design: key: Active: Compounds with an IC50 value less than 30 μM were deemed to be active.; Not Active: Compounds with an IC50 value less than 30 μM were deemed to be active; details: Brd4 bromodomain 1, tetra-acetylated histone H4 peptide
T1 construct: made in house; host or cells: E. coli BL21(DE3)
How it was run: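 N-terminally His-tagged bromodomain (200 nM, E. coli-expressed, Ni affinity and SEC purified) with biotinylated tetra-acetylated H4 peptide (25-50 nM), Eu-cryptate streptavidin and XL665 anti-His; 2 h at room temperature in HEPES pH 7.4/KF buffer, 0.2% DMSO. The 665/620 nm ratio decrease gave IC50 from dose-response curves.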

COc1cc(OC)c2c(=O)[nH]c(-c3cccc(N4CCN(C(C)C)CC4)n3)nc2c1 [Example 17, 2-(6-(4-Isopropylpiperazin-1-yl)pyridin-2-yl)-5,7-dimethoxyquinazolin-4(3H)-one Hydrochloride]
Active: c-myc activity (IC50 < 30 μM) [1] | In vivo activity [2] | IL-6 activity (IC50 < 30 μM) [3] | FRET activity (IC50 < 30 μM) [4]
